Data as given in ChEMBL document CHEMBL1151289, “Biosynthesis of ganefromycin: results from blocked mutants and bioconversion experiments” (1998).
Values after ≈ are worked out from the molar mass of the structure shown.

Tested on: Priestia megaterium
Assay: Antimicrobial activity against Bacillus megaterium
Assay type: functional

SMILES	MIC [µg/mL]
C/C=C\C=C\[C@@H]1O[C@](O)([C@@H](CO[C@H]2C[C@H](OC)[C@H](O[C@@H]3C[C@@H](OC)[C@@H](O[C@H]4C[C@H](OC)[C@H](O)[C@H](C)O4)[C@H](C)O3)[C@H](C)O2)C(=O)NC/C=C/C=C(\C)C(OC)C(C)C2CC(O)C(/C=C/C=C/C=C/C(=O)O)O2)C[C@H](O)C1(C)C (stereo not given in full)	6.3 (≈ 5.77 µM)
C/C=C\C=C\[C@@H]1O[C@](O)([C@H](CO[C@H]2C[C@H](OC)[C@H](O[C@@H]3C[C@@H](OC)[C@@H](O[C@H]4C[C@H](OC)[C@H](O)[C@H](C)O4)[C@H](C)O3)[C@H](C)O2)C(=O)NC/C=C/C=C(\C)C(OC)C(C)C2CC(O)C(/C=C/C=C/C=C/C(=O)O)O2)C[C@H](O)C1(C)C (stereo not given in full)	6.3 (≈ 5.77 µM)
C/C=C\C=C\[C@@H]1O[C@](O)([C@H](CO[C@H]2C[C@H](OC)[C@H](O[C@@H]3C[C@@H](OC)[C@@H](O[C@H]4C[C@H](OC)[C@H](O)[C@H](C)O4)[C@H](C)O3)[C@H](C)O2)C(=O)NC/C=C/C=C(\C)C(OC)C(C)C(=O)CC(O)C/C=C/C=C/C=C/C(=O)O)C[C@H](O)C1(C)C (stereo not given in full)	3.1 (≈ 2.84 µM)
C/C=C\C=C\[C@@H]1O[C@](O)([C@H](C)C(=O)NC/C=C/C=C(\C)C(O)C(C)C2CC(O)C(/C=C/C=C/C=C/C(=O)O)O2)C[C@H](O)C1(C)C (stereo not given in full)	> 100
C/C=C\C=C\[C@@H]1O[C@](O)([C@H](CO[C@H]2C[C@H](OC)[C@H](O[C@@H]3C[C@@H](OC)[C@@H](O[C@H]4C[C@H](OC)[C@H](O)[C@H](C)O4)[C@H](C)O3)[C@H](C)O2)C(=O)NC/C=C/C=C(\C)C(OC)C(C)C2CC(O)C(/C=C/C=C/C=C/C(=O)O)O2)[C@H](OC(=O)Cc2ccccc2)[C@H](O)C1(C)C (stereo not given in full)	0.4 (≈ 0.326 µM)
C/C=C\C=C\[C@@H]1O[C@](O)([C@@H](C)C(=O)NC/C=C/C=C(\C)C(O)C(C)C2CC(O)C(/C=C/C=C/C=C/C(=O)O)O2)C[C@H](O)C1(C)C (stereo not given in full)	> 100
C/C=C\C=C\[C@@H]1O[C@](O)([C@H](CO[C@H]2C[C@H](O)[C@H](O)[C@H](C)O2)C(=O)NC/C=C/C=C(\C)C(OC)C(C)C2CC(O)C(/C=C/C=C/C=C/C(=O)O)O2)[C@H](O)[C@H](OC(=O)Cc2ccccc2)C1(C)C (stereo not given in full)	50 (≈ 54.1 µM)
C/C=C\C=C\[C@@H]1O[C@](O)([C@H](CO[C@H]2C[C@H](O)[C@H](O)[C@H](C)O2)C(=O)NC/C=C/C=C(\C)C(OC)C(C)C2CC(O)C(/C=C/C=C/C=C/C(=O)O)O2)[C@H](OC(=O)Cc2ccccc2)[C@H](O)C1(C)C (stereo not given in full)	12.5 (≈ 13.5 µM)
C/C=C\C=C\[C@@H]1O[C@](O)([C@H](C)C(=O)NC/C=C/C=C(\C)C(OC)C(C)C2CC(O)C(/C=C/C=C/C=C/C(=O)O)O2)[C@H](OC(=O)Cc2ccccc2)[C@H](O)C1(C)C (stereo not given in full)	12.5 (≈ 16.1 µM)
C/C=C\C=C\[C@@H]1O[C@](O)([C@H](CO)C(=O)NC/C=C/C=C(\C)C(OC)C(C)C2CC(O)C(/C=C/C=C/C=C/C(=O)O)O2)[C@H](O)[C@H](O)C1(C)C (stereo not given in full)	50 (≈ 74 µM)
C/C=C\C=C\[C@@H]1O[C@](O)([C@H](C)C(=O)NC/C=C/C=C(\C)C(OC)C(C)C2CC(O)C(/C=C/C=C/C=C/C(=O)O)O2)[C@H](O)[C@H](O)C1(C)C (stereo not given in full)	6.3 (≈ 9.55 µM)
C/C=C\C=C\[C@@H]1O[C@](O)([C@@H](CO[C@@H]2O[C@@H](C)[C@@H](C)[C@@H](O[C@@H]3C[C@@H](OC)[C@@H](O)[C@H](C)O3)[C@H]2OC)C(=O)NC/C=C/C=C(\C)C(OC)C(C)C2CC(O)C(/C=C/C=C/C=C/C(=O)O)O2)C[C@H](O)C1(C)C (stereo not given in full)	12.6 (≈ 13.1 µM)
C/C=C\C=C\[C@@H]1O[C@](O)([C@H](C)C(=O)NC/C=C/C=C(\C)C(O)C(C)C2CC(O)C(/C=C/C=C/C=C/C(=O)O)O2)[C@H](O)[C@H](O)C1(C)C (stereo not given in full)	100 (≈ 155 µM)
C/C=C\C=C\[C@@H]1O[C@](O)([C@H](CO[C@H]2C[C@H](O)[C@H](O)[C@H](C)O2)C(=O)NC/C=C/C=C(\C)C(OC)C(C)C2CC(O)C(/C=C/C=C/C=C/C(=O)O)O2)[C@H](O)[C@H](O)C1(C)C (stereo not given in full)	100 (≈ 124 µM)
C/C=C\C=C\[C@@H]1O[C@](O)([C@H](CO[C@@H]2O[C@@H](C)[C@@H](C)[C@@H](O[C@@H]3C[C@@H](OC)[C@@H](O)[C@H](C)O3)[C@H]2OC)C(=O)NC/C=C/C=C(\C)C(OC)C(C)C2CC(O)C(/C=C/C=C/C=C/C(=O)O)O2)C[C@H](O)C1(C)C (stereo not given in full)	12.6 (≈ 13.1 µM)
